Measurements from PMC3510080, “Identification of Compounds with Anti-Proliferative Activity against Trypanosoma brucei brucei Strain 427 by a Whole Cell Viability Based HTS Campaign” (PLoS Neglected Tropical Diseases, 2012).
Values joined by “and” are separate entries in the source; they are usually repeats but may differ in a detail not shown here. Equal values may be shown once. Read-outs that look alike come from different tables or passages of the source.

How the values were obtained:
[1] = test system: T. cruzi Tulahuen strain C2C4; experiment: T. cruzi Tulahuen strain C2C4 β-galactosidase assay; SI versus L6 cells; format: cell-based, Trypanosoma cruzi; details: for IC50: in L6 host cells, 96 h, read-out: Compound activity T.C (IC50); for Selectivity Index T.C: relative to L6 cells
Method: (§1) L6 rat skeletal myoblasts, [29] were purchased from the American Type Culture Collection (ATCC, Rockville, MD, USA; ATCC number CRL 1458). This cell line was used for cytotoxicity testing to calculate an SI against T.b. rhodesiense and screened alongside the T.b. rhodesiense, P. falciparum, T. cruzi and L. donovani assays. L6 were also the host cells for the T. cruzi assay. Assays were performed in 96-well microtiter plates, each well containing 100 µl of RPMI 1640 medium supplemented with 1% L-glutamine (200 mM), 10% FCS, and 4000 L6 cells. Serial drug dilutions of eleven 3-fold dilution steps covering a range from 100 to 0.002 µg/ml were prepared. After 70 hours of incubation the plates were inspected under an inverted microscope to assure growth of the controls and sterile conditions. Ten µl of resazurin solution (resazurin, 12.5 mg in 100 ml double-distilled water) was then added to each well and the plates incubated for another 2 hours. Then the plates were read with a Spectramax Gemini XS microplate fluorometer (Molecular Devices Cooperation, Sunnyvale, CA, USA) using an excitation wavelength of 536 nm and an emission wavelength of 588 nm. Data was analysed using the microplate reader software Softmax Pro (Molecular Devices, USA). Podophyllotoxin was used as a positive control in the assay.
Rat skeletal myoblasts (L6 cells) were seeded in 96-well microtitre plates at 2000 cells/well in 100 µl RPMI 1640 medium with 10% FCS and 2 mM l-glutamine. After 24 hours the medium was removed and replaced by 100 µl per well containing 5000 trypomastigote forms of T. cruzi Tulahuen strain C2C4 containing the β-galactosidase (Lac Z) gene. After 48 hours the medium was removed from the wells and replaced by 100 µl fresh medium with or without a serial drug dilution of eleven 3-fold dilution steps covering a range from 100 to 0.002 µg/ml. After 96 hours of incubation the plates were inspected under an inverted microscope to assure growth of the controls and sterility. Then 50 µl of the substrate, containing chlorophenol red-β-D-galactopyranoside (CPRG) and Nonidet, was added to all wells. A colour reaction developed within 2–6 hours that could be read photometrically at 540 nm. Data were transferred into the graphic programme Softmax Pro (Molecular Devices, USA), which calculated IC50 values. The drug benznidazole was used as a positive standard in this assay.

P. falciparum K1 strain = experiment: P. falciparum 3H-hypoxanthine incorporation assay; SI versus L6 cells; format: cell-based, Plasmodium falciparum; details: for IC50: Plasmodium falciparum, K1, L6, read-out: Compound activity P.F (IC50); for Selectivity Index P.F: relative to L6 cells
Method: as §1
Compounds dissolved in DMSO at 10 mg/ml were added to parasite cultures incubated in RPMI 1640 medium without hypoxanthine, supplemented with HEPES (5.94 g/l), NaHCO3 (2.1 g/l), neomycin (100 U/ml), Albumax (5 g/l) and washed human A^+ red blood cells at 2.5% haematocrit (0.3% parasitaemia). Serial drug dilutions of eleven 3-fold dilution steps covering a range from 100 to 0.002 µg/ml were prepared. The 96-well plates were incubated in a humidified atmosphere at 37°C; 4% CO2, 3% O2, 93% N2. After 48 hours, 50 µl of ^3H-hypoxanthine ( = 0.5 µCi) was added to each well of the plate. The plates were incubated for a further 24 hours under the same conditions. The plates were then harvested with a Betaplate cell harvester (Wallac, Zurich, Switzerland), and the red blood cells transferred onto a glass fibre filter then washed with distilled water. The dried filters were inserted into a plastic foil with 10 ml of scintillation fluid, and counted in a Betaplate liquid scintillation counter (Wallac, Zurich, Switzerland). IC50 values were calculated from sigmoidal inhibition curves using Microsoft Excel.

T.b. rhodesiense STIB900 = experiment: T. b. rhodesiense STIB900 assay (resazurin); SI versus L6 cells; format: cell-based, Trypanosoma brucei rhodesiense; details: for IC50: T.b. rhodesiense STIB900, 70 h, read-out: Compound activity T.R (IC50); for Selectivity Index T.R: relative to L6 cells
Method: as §1
T.b. rhodesiense STIB900 stock was isolated in 1982 from a human patient in Tanzania and after several mouse passages cloned and adapted to axenic culture conditions. Fifty microliters of Minimum Essential Medium (MEM) supplemented with 25 mM HEPES, 1 g/l additional glucose, 1% MEM non-essential amino acids (100×), 0.2 mM 2-mercaptoethanol, 1 mM Na-pyruvate and 15% heat inactivated horse serum was added to each well of a 96-well microtiter plate. Serial drug dilutions of eleven 3-fold dilution steps covering a range from 100 to 0.002 µg/ml were prepared. Four thousand bloodstream form cells of T.b. rhodesiense STIB 900 in 50 µl were added to each well and the plate incubated at 37°C under a 5% CO2 atmosphere for 70 hours. Ten microlitres of resazurin solution (resazurin, 12.5 mg in 100 ml double-distilled water) was then added to each well and incubation continued for a further 2–4 hours. Plates were then read with a Spectramax Gemini XS microplate fluorometer (Molecular Devices, USA) using an excitation wavelength of 536 nm and an emission wavelength of 588 nm. Data was analysed using the microplate reader software Softmax Pro (Molecular Devices, USA). The drug melarsoprol was a positive control against T.b. rhodesiense.

T.b. brucei = experiment: Time to kill assay (Presto Blue); format: cell-based, Trypanosoma brucei brucei; details: for IC50: Trypanosoma brucei
Method: The starting dose was 40 µM, and the IC50 values were determined from a 16 point dose-response curve. The assay conditions were the same as previously described for the Alamar Blue assay, except that 10 µL of a final 10% concentration of Presto Blue in HMI-9 medium was added as the indicator of viable cells, at various time points. At the first time point, following 20 hours of incubation with compounds, Presto Blue was added to the wells and incubation at 37°C continued. Plates were read every hour and returned to continue incubation at 37°C. This was performed to determine at which time point there was a reproducible signal (Z' of >0.5), using puromycin as a […].

[2] = Trypanosoma cruzi, TULAHUEN, L6, 96 h
[3] = 29 hours after addition of compound, 2 experiments, read-out: Activity (IC50 value) 29 hours
[4] = 48 hours after addition of compound, read-out: Activity (IC50 value) 48 hours
[5] = read-out: Activity (IC50 value) 72 hours, 72 hours after addition of compound

SMILES	IC50 [1, 2] [nM]	Selectivity Index T.C [1]	IC50 (P. falciparum K1 strain) [nM]	Selectivity Index P.F (P. falciparum K1 strain)	IC50 (T.b. rhodesiense STIB900)	IC50 (T.b. rhodesiense STIB900; Trypanosoma brucei, L6, 70 h) [nM]	IC50 (T.b. brucei; [3]) [nM]	IC50 (T.b. brucei; [4]) [nM]	IC50 (T.b. brucei; [5]) [nM]	IC50 [1] [nM]	Selectivity Index T.R (T.b. rhodesiense STIB900)	exposure time at which stable/maximum IC50 value was reached (T.b. brucei) [h]
O=C(NCCc1n[nH]c(-c2ccc(F)cc2)n1)c1cccc(F)c1 [Compound 2]	19300 ± 90.5	6.20	23900 ± 8480	5.00	6770 ± 545 nM	6800	4840 ± 449	3830 ± 873	500 ± 43.1			
CC(C)(C)C(=O)NCCc1csc(-c2cccc(F)c2)n1 [Compound 1]	2300	26.8	35400 ± 2750	1.76	1470 ± 390 nM	1500	898 ± 332	691 ± 66.4	1030 ± 18.4	2320 ± 60.1	42 and 42.3	
Cc1cc(O)nc(-n2nc(C)cc2NC(=O)C2CCCC2)n1 [Compound 4]	15400 ± 4290	0.0588	8170 ± 4000	0.110	4850 ± 2080 nM	4800					0.19 and 0.186	
CCOc1ccc(OCc2ccc(C(=O)N3CCCC(C)C3)cc2)cc1 (centres unmarked) [Compound 3]	19100 ± 5320	2.56	14300 ± 6640	3.48	854 ± 332 nM	850					60 and 58.5	
COc1ccc(C[C@H](N)C(=O)N[C@H]2[C@@H](O)[C@H](n3cnc4c(N(C)C)ncnc43)O[C@@H]2CO)cc1 [Puromycin, puromycin, reference compound]							152 ± 65.4	58.1 ± 10.1	68.6 ± 0.283			48
O=C(Nc1ccc(Cl)c(-c2nc3ncccc3o2)c1)c1ccco1 [Compound 7]	230 ± 49.6		7760 ± 3220		586 ± 73 nM	590	178 ± 7	142 ± 38.7	220 ± 17.6			
N=C(N)c1ccc(OCCCCCOc2ccc(C(=N)N)cc2)cc1 [Pentamidine, pentamidine, reference compound]							9.13 ± 2.76	3.41 ± 0.661	4.66 ± 0.936			48
CCC(C)NC(=O)c1nc(-c2ccccc2)cnc1N (centres unmarked) [Compound 6]	19100 ± 5320	0.933	11300 ± 4790	1.58	967 ± 450 nM	970	3090 ± 1380	177 ± 11	111 ± 50.2		18 and 18.4	48
CCS(=O)(=O)N1CCCc2ccc(NS(=O)(=O)c3ccccc3F)cc21 [Compound 5]	14800 ± 151	1.47	12600 ± 5870	1.72	14000 nM and 14400 nM	< 10000						
CCc1ccccc1N=C(NCCN1CCOCC1)NC(=O)c1ccccc1 [Compound 8]	82000	1.61	5330 ± 2040	24.8	875 ± 65 nM	880				82100 ± 1690	150	
